Experimental data: patent publication US6355799B1, “Substituted benzene compounds, process for their preparation, and herbicidal and defoliant compositions containing them” (ISK Americas Incorporated, priority 1997, dated 2002)

Tests used:
Type in all cases: in vivo
[1] = tested on: field corn (Zea mays L., var. Dekalb 535, CORN); experiment: Pre-emerge test, crop safety; conditions: pre-emerge, rated 14 days after application, 0 = no damage, 100 = complete death
Method in brief: (§1)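 Rating: 0–100 visual injury, 14 DAA. Application: acetone, 187 l/ha, 15–1000 g ai/ha, flat-fan track sprayer with nozzle 40–45 cm above soil or canopy. Post-emerge runs used 0.25% v/v surfactant on 2–3 leaf plants.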

[2] = tested on: upland rice (Oryza sp., var. Tebonnet, RICE); experiment: Pre-emerge test, crop safety; conditions: pre-emerge, rated 14 days after application, 0 = no damage, 100 = complete death
Method in brief: as §1

[3] = tested on: green foxtail (Setaria viridis, SETVI); experiment: Post-emerge test, greenhouse herbicide activity screening; conditions: phytotoxicity rating 0-100 (0 no damage, 100 complete death), 14 days after application
Method in brief: (§2)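 Visual ratings on a 0-100 scale (0 no damage, 100 all plants dead) were taken at 14 days after treatment. Rates of 15-1000 g ai/ha in acetone, 187 l/ha, were sprayed onto soil one day after planting (pre-emerge) or onto 2-3 leaf plants with 0.25% v/v surfactant (post-emerge).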

[4] = tested on: lambsquarters (Chenopodium album, CHEAL); experiment: as above; conditions: phytotoxicity rating 0-100 (0 no damage, 100 complete death), 14 days after application
Method in brief: as §2

[5] = tested on: velvetleaf (Abutilon theophrasti, ABUTH); experiment: as above; conditions: phytotoxicity rating 0-100 (0 no damage, 100 complete death), 14 days after application
Method in brief: as §2

[6] = tested on: barnyardgrass (Echinochloa crus-galli, ECHCG); experiment: as above; conditions: phytotoxicity rating 0-100 (0 no damage, 100 complete death), 14 days after application
Method in brief: as §2

[7] = tested on: common ragweed (Ambrosia artemisizfolia L., AMBEL); experiment: as above; conditions: phytotoxicity rating 0-100 (0 no damage, 100 complete death), 14 days after application
Method in brief: as §2

[8] = tested on: sicklepod (Cassia obtusifolia, CASOB); experiment: as above; conditions: phytotoxicity rating 0-100 (0 no damage, 100 complete death), 14 days after application
Method in brief: as §2

[9] = tested on: redroot pigweed (Amaranthus retroflexus, AMARE); experiment: as above; conditions: phytotoxicity rating 0-100 (0 no damage, 100 complete death), 14 days after application
Method in brief: as §2

[10] = tested on: large crabgrass (Digitaria sanguinalis, DIGSA); experiment: as above; conditions: phytotoxicity rating 0-100 (0 no damage, 100 complete death), 14 days after application
Method in brief: as §2

[11] = tested on: ivyleaf morningglory (Ipomoea hederacea, IPOHE); experiment: as above; conditions: phytotoxicity rating 0-100 (0 no damage, 100 complete death), 14 days after application
Method in brief: as §2

[12] = tested on: field corn (Zea mays L., var. Dekalb 535, CORN); experiment: Post-emerge test, crop safety; conditions: phytotoxicity rating 0-100 (0 no damage, 100 complete death), 14 days after application
Method in brief: as §2

[13] = tested on: upland rice (Oryza sp., var. Tebonnet, RICE); experiment: Post-emerge test, crop safety; conditions: phytotoxicity rating 0-100 (0 no damage, 100 complete death), 14 days after application
Method in brief: as §2

[14] = tested on: redroot pigweed (Amaranthus retroflexus, AMARE); experiment: Pre-emerge test, greenhouse herbicide activity screening; conditions: pre-emerge, rated 14 days after application, 0 = no damage, 100 = complete death
Method in brief: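 Compounds in acetone were track-sprayed at 187 l/ha, 15–1000 g ai/ha, onto sandy loam pots. Pre-emerge seeds were sown one day before spraying, with surface watering afterwards. Post-emerge plants were at the 2–3 leaf stage and sprayed with 0.25% v/v non-ionic surfactant. Injury was rated 0–100 at 14 days.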

[15] = tested on: green foxtail (Setaria viridis, SETVI); experiment: as above; conditions: pre-emerge, rated 14 days after application, 0 = no damage, 100 = complete death
Method in brief: as §2

[16] = tested on: lambsquarters (Chenopodium album, CHEAL); experiment: as above; conditions: pre-emerge, rated 14 days after application, 0 = no damage, 100 = complete death
Method in brief: as §2

[17] = tested on: velvetleaf (Abutilon theophrasti, ABUTH); experiment: as above; conditions: pre-emerge, rated 14 days after application, 0 = no damage, 100 = complete death
Method in brief: as §2

[18] = tested on: barnyardgrass (Echinochloa crus-galli, ECHCG); experiment: as above; conditions: pre-emerge, rated 14 days after application, 0 = no damage, 100 = complete death
Method in brief: as §2

[19] = tested on: common ragweed (Ambrosia artemisizfolia L., AMBEL); experiment: as above; conditions: pre-emerge, rated 14 days after application, 0 = no damage, 100 = complete death
Method in brief: as §2

[20] = tested on: sicklepod (Cassia obtusifolia, CASOB); experiment: as above; conditions: pre-emerge, rated 14 days after application, 0 = no damage, 100 = complete death
Method in brief: as §2

[21] = tested on: johnsongrass (Sorghum halepense, SORHA); experiment: as above; conditions: pre-emerge, rated 14 days after application, 0 = no damage, 100 = complete death
Method in brief: as §2

[22] = tested on: large crabgrass (Digitaria sanguinalis, DIGSA); experiment: as above; conditions: pre-emerge, rated 14 days after application, 0 = no damage, 100 = complete death
Method in brief: as §2

[23] = tested on: ivyleaf morningglory (Ipomoea hederacea, IPOHE); experiment: as above; conditions: pre-emerge, rated 14 days after application, 0 = no damage, 100 = complete death
Method in brief: as §2

SMILES: CCOC(=O)C(C)Nc1cc(Cl)cc(F)c1-n1c(=O)cc(C(F)(F)F)n(C)c1=O (stereo not shown) [Compound 1-54]
- Pre-emerge crop damage CORN (phytotoxicity rating, scale 0-100) ([1]; 63 g ai/ha): 95
- Pre-emerge crop damage CORN (phytotoxicity rating, scale 0-100) ([1]; 250 g ai/ha): 99
- Pre-emerge crop damage RICE (phytotoxicity rating, scale 0-100) ([2]; 63 g ai/ha): 60
- Pre-emerge crop damage RICE (phytotoxicity rating, scale 0-100) ([2]; 250 g ai/ha): 95
- Post-emerge Herbicidal Activity SETVI ([3]; 63 g ai/ha): 40
- Post-emerge Herbicidal Activity SETVI ([3]; 250 g ai/ha): 60
- Post-emerge Herbicidal Activity CHEAL ([4]; 63 g ai/ha): 100
- Post-emerge Herbicidal Activity CHEAL ([4]; 250 g ai/ha): 100
- Post-emerge Herbicidal Activity ABUTH ([5]; 63 g ai/ha): 100
- Post-emerge Herbicidal Activity ABUTH ([5]; 250 g ai/ha): 100
- Post-emerge Herbicidal Activity ECHCG ([6]; 63 g ai/ha): 20
- Post-emerge Herbicidal Activity ECHCG ([6]; 250 g ai/ha): 75
- Post-emerge Herbicidal Activity AMBEL ([7]; 63 g ai/ha): 100
- Post-emerge Herbicidal Activity AMBEL ([7]; 250 g ai/ha): 100
- Post-emerge Herbicidal Activity CASOB ([8]; 63 g ai/ha): 90
- Post-emerge Herbicidal Activity CASOB ([8]; 250 g ai/ha): 100
- Post-emerge Herbicidal Activity AMARE ([9]; 63 g ai/ha): 100
- Post-emerge Herbicidal Activity AMARE ([9]; 250 g ai/ha): 100
- Post-emerge Herbicidal Activity DIGSA ([10]; 63 g ai/ha): 40
- Post-emerge Herbicidal Activity DIGSA ([10]; 250 g ai/ha): 70
- Post-emerge Herbicidal Activity IPOHE ([11]; 63 g ai/ha): 100
- Post-emerge Herbicidal Activity IPOHE ([11]; 250 g ai/ha): 100
- Post-emerge Herbicidal Activity CORN (crop damage) ([12]; 63 g ai/ha): 50
- Post-emerge Herbicidal Activity CORN (crop damage) ([12]; 250 g ai/ha): 70
- Post-emerge Herbicidal Activity RICE (crop damage) ([13]; 63 g ai/ha): 40
- Post-emerge Herbicidal Activity RICE (crop damage) ([13]; 250 g ai/ha): 45
- Pre-emerge Herbicidal Activity AMARE (phytotoxicity rating, scale 0-100) ([14]; 63 g ai/ha): 100
- Pre-emerge Herbicidal Activity AMARE (phytotoxicity rating, scale 0-100) ([14]; 250 g ai/ha): 100
- Pre-emerge Herbicidal Activity SETVI (phytotoxicity rating, scale 0-100) ([15]; 63 g ai/ha): 90
- Pre-emerge Herbicidal Activity SETVI (phytotoxicity rating, scale 0-100) ([15]; 250 g ai/ha): 100
- Pre-emerge Herbicidal Activity CHEAL (phytotoxicity rating, scale 0-100) ([16]; 63 g ai/ha): 100
- Pre-emerge Herbicidal Activity CHEAL (phytotoxicity rating, scale 0-100) ([16]; 250 g ai/ha): 100
- Pre-emerge Herbicidal Activity ABUTH (phytotoxicity rating, scale 0-100) ([17]; 63 g ai/ha): 100
- Pre-emerge Herbicidal Activity ABUTH (phytotoxicity rating, scale 0-100) ([17]; 250 g ai/ha): 100
- Pre-emerge Herbicidal Activity ECHCG (phytotoxicity rating, scale 0-100) ([18]; 63 g ai/ha): 45
- Pre-emerge Herbicidal Activity ECHCG (phytotoxicity rating, scale 0-100) ([18]; 250 g ai/ha): 100
- Pre-emerge Herbicidal Activity AMBEL (phytotoxicity rating, scale 0-100) ([19]; 63 g ai/ha): 100
- Pre-emerge Herbicidal Activity AMBEL (phytotoxicity rating, scale 0-100) ([19]; 250 g ai/ha): 100
- Pre-emerge Herbicidal Activity CASOB (phytotoxicity rating, scale 0-100) ([20]; 63 g ai/ha): 30
- Pre-emerge Herbicidal Activity CASOB (phytotoxicity rating, scale 0-100) ([20]; 250 g ai/ha): 80
- Pre-emerge Herbicidal Activity SORHA (phytotoxicity rating, scale 0-100) ([21]; 63 g ai/ha): 80
- Pre-emerge Herbicidal Activity SORHA (phytotoxicity rating, scale 0-100) ([21]; 250 g ai/ha): 100
- Pre-emerge Herbicidal Activity DIGSA (phytotoxicity rating, scale 0-100) ([22]; 63 g ai/ha): 80
- Pre-emerge Herbicidal Activity DIGSA (phytotoxicity rating, scale 0-100) ([22]; 250 g ai/ha): 100
- Pre-emerge Herbicidal Activity IPOHE (phytotoxicity rating, scale 0-100) ([23]; 63 g ai/ha): 100
- Pre-emerge Herbicidal Activity IPOHE (phytotoxicity rating, scale 0-100) ([23]; 250 g ai/ha): 100
